The assay concerns the target Cav2.3 (Homo sapiens, UniProt Q15878). As to the kind of experiment: Human Cav2.3 channel calcium-influx assay. Format: cell-based. The note with it: HEK-293 T-Rex/Kir2.1 cells with inducible Cav2.3e-β4-α2δ1; Fluo8 fluorescence; 8-point dose response from 30 μM; no pluronic acid; read-out: Cav2.3 (pIC50) (converted). The method, then: HEK-293 T-Rex cells were transfected with pcDNA3.1-Kir2.1 to generate a stable cell line. After antibiotic selection, the obtained stable pools were analysed using FLIPR^TETRA(membrane potential assay), and a limiting dilution was performed and a HEK-293 T-Rex/Kir2.1 clone was selected. The clone was transfected with pcDNA3.1-Cav2.3e and pBud-Cav-β4-α2δ1 to generate a stable cell line where the Cav2.3e expression is inducible. After antibiotic selection, functional clone pool analysis and two successive limiting dilutions, the final clone underwent a qPCR analysis and a biophysical and pharmacological validation using patch-clamp.
A compound plate, containing 10 test compounds in eight-points dose response with n=4, was prepared. Test compounds dose response curves were prepared in automated fashion in 100% DMSO at CyBio Felix and starting from a stock solution in 100% DMSO; a defined volume was serially moved into destination wells pre-filled with the desired DMSO volume; stock solution concentration volumes were dependent on the final compounds concentrations to be tested and the final DMSO content used in the assay. For the assay test compounds dose response curves ranged from 30 μM and half log dilution with 0.3% final DMSO. In order to obtain the 8-points dose response curve all the concentrations were created by starting from a 10 mM DMSO stock solution and then moving 9.5 μL into a destination well pre-filled with 20.5 μL of 100% DMSO and repeating this step seven times. This initial step was done into 96 MTP plates, 10 compounds/plate. One 384 MTP was then reformatted to contain all the 10 compounds at 8 concentrations, quadruplicate data points. This so obtained 384 MTP compound plate served as source plate in a “mother to child” process with a CyBi®-Well dispenser in which 0.7 μL of compounds were moved into a destination plate pre-filled with 57.6 μL of Tyrode's buffer 0 mM K^+, thus obtaining 4× concentrated compounds solution. In columns 1-2 and 23-24 the control wells were added. Both “source” compound plate and “destination” compound plate were barcoded and a relationship between the two plates was thus generated.
The day before the experiment, cells were detached by gentle wash with DPBS, followed by 5 min incubation at 37° C. with Trypsin solution. Detached cells were diluted with OptiMEM+Doxycycline at 0.2 μg/mL, counted and plated in Poly-D-Lysine coated black/clear bottom (15.000 c/well in 20 μl/well) by the use of a MATRIX WellMate dispenser. Plates were placed into a humidified incubator at 37° C. with 5% CO2 until the experimental day. 24 h after seeding 10 μL/well of 1.5× Fluo8 NW dye solution prepared in Tyrode's buffer 0 mM K^+ were added on top of the seeding medium. Cell plates were incubated for 40-60 min at RT in the dark. We then Injected off-line 10 μL/well of test compounds and controls 4× concentrated in Tyrode's Buffer 0 mM K+ with the CyBi®-Well instrument. Cell plates were incubated 3 minutes at RT. Finally, we injected 20 μL/well of 3× concentrated activator solution (K20-Na130-Ca2 buffer: 20 mM KCl, 130 mM NaCl, 2 mM CaCl2, 10 mM HEPES, 10 mM Glucose, final concentrations, prepared starting from “K0-Na150-Ca2” and “K150-Na0-Ca2” buffers) at FDSS7000EX instrument and read emitted fluorescence for 130 seconds.
Data analysis was performed with Genedata Screener® software and reported compounds activity as % effect in relation to the normalization standards. The Kinetic Response Value (KRV) is calculated as follows:
KRV=Maximal fluorescence recorded from second 5 to second 130 minus baseline fluorescence, computed as average from second 1 to second 2, of the kinetic trace. The KRV was normalized versus Neutral Controls and Inhibitor Controls in order to obtain the Activity[%] for each well. […] Therefore, the compound activity values were scaled (based on the two references) to a common range (two-point normalization). […]
Cav2.3, sequence (Q15878 1-2270 isoform Q15878-3): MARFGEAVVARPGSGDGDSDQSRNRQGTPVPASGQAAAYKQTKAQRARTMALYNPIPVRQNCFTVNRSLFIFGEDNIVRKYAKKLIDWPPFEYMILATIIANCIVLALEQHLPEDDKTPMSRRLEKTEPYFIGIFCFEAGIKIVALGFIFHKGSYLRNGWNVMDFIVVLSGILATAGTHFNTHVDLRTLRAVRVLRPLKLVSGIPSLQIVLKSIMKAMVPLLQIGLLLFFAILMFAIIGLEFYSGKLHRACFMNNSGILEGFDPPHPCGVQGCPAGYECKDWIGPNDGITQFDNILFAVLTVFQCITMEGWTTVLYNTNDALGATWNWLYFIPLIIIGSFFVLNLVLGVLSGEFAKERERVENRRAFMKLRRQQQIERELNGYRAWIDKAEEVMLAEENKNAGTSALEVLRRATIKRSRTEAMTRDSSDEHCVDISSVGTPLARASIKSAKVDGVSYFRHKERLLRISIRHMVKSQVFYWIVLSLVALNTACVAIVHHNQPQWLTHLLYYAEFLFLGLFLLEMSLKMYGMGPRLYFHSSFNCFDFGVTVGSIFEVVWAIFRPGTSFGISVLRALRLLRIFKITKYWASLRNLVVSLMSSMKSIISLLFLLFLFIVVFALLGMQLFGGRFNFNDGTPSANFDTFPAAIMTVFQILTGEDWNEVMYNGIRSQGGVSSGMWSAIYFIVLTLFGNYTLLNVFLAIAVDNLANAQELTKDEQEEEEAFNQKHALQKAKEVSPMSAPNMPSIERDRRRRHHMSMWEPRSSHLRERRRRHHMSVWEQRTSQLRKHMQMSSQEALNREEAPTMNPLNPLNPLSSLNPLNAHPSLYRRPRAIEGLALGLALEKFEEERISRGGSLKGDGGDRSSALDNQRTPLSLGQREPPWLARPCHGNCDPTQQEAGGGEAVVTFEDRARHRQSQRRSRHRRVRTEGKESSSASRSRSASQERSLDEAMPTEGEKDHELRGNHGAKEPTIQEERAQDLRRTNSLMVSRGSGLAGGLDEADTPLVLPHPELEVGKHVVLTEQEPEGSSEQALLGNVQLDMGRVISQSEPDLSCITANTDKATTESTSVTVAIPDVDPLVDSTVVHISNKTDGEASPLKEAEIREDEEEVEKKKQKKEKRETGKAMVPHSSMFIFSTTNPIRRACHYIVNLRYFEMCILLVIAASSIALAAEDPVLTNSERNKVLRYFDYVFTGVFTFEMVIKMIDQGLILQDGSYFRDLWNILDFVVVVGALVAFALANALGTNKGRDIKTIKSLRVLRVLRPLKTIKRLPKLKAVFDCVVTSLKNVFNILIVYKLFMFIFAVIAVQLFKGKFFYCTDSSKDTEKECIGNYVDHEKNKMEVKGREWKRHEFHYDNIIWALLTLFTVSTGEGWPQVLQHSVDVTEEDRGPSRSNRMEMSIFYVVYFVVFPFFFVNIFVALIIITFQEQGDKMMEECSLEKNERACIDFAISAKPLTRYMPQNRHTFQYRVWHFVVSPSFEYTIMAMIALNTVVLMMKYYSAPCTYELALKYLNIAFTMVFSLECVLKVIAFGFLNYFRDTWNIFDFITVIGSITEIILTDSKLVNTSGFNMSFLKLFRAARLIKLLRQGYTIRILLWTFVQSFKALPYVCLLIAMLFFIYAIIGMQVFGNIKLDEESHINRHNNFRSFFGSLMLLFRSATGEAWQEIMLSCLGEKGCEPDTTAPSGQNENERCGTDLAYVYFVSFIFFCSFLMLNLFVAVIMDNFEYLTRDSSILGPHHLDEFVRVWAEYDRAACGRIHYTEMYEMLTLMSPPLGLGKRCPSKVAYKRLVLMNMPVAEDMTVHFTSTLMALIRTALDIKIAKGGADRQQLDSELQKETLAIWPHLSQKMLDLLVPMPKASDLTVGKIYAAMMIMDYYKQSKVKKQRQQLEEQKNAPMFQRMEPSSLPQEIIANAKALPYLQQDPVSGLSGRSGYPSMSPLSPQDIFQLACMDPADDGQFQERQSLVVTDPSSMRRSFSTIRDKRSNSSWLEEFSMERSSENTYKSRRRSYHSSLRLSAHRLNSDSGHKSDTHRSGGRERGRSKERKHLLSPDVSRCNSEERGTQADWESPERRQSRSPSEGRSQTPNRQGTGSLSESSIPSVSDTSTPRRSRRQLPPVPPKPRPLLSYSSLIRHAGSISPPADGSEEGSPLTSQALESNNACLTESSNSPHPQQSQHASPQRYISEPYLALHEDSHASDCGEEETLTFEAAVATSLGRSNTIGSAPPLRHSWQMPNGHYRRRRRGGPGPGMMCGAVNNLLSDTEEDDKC
For the molecule `CC(C)C(=O)N1CCc2ccc(S(=O)(=O)NCC(C)c3ccc(F)cc3)cc2C1` (single isomer, unassigned) [Example 17, N-(2-(4-fluorophenyl)propyl)-2-isobutyryl-1,2,3,4-tetrahydroisoquinoline-7-sulfonamide], the IC50 was 6.17 µM.

For `CCN([C@@H](c1ccc(F)cc1)C(F)(F)F)S(=O)(=O)c1ccc2c(c1)CN(C(=O)C(C)C)CC2` (stereo in doubt) [Example 7, N-ethyl-2-isobutyryl-N-(2,2,2-trifluoro-1-(4-fluorophenyl)ethyl)-1,2,3,4-tetrahydroisoquinoline-7-sulfonamide], the IC50 was 2 µM.

Take `C[C@@H](c1ccccc1)N(C)S(=O)(=O)c1ccc2c(c1)CN(C(=O)C(F)(F)F)CC2` [Example 2, (S)-N-methyl-N-(1-phenylethyl)-2-(2,2,2-trifluoroacetyl)-1,2,3,4-tetrahydroisoquinoline-7-sulfonamide]: the IC50 was 2.04 µM.

Turning to `C[C@@H](c1ccccc1)N(C)S(=O)(=O)c1ccc2c(c1)CN(c1ccncc1)CC2` [Example 3, (S)-N-methyl-N-(1-phenylethyl)-2-(pyridin-4-yl)-1,2,3,4-tetrahydroisoquinoline-7-sulfonamide], the IC50 was 2.09 µM.

In the case of `C[C@@H](c1ccccc1)N(C)S(=O)(=O)c1ccc2c(c1)CN(C(=O)c1ccccc1)CC2` [Example 4, (S)-2-benzoyl-N-methyl-N-(1-phenylethyl)-1,2,3,4-tetrahydroisoquinoline-7-sulfonamide], the IC50 was 2 µM.

Consider `CCN(C(c1ccc(F)cc1)C(F)(F)F)S(=O)(=O)c1ccc2c(c1)CN(C(=O)C(C)C)CC2` (stereo not drawn) [Example 5, N-ethyl-2-isobutyryl-N-(2,2,2-trifluoro-1-(4-fluorophenyl)ethyl)-1,2,3,4-tetrahydroisoquinoline-7-sulfonamide], for which the IC50 was 0.437 µM.

For the molecule `CC(C)C(=O)N1CCc2ccc(S(=O)(=O)N(C)C(c3ccc(F)cc3)C(F)(F)F)cc2C1` (stereo not drawn) [Example 8, 2-isobutyryl-N-methyl-N-(2,2,2-trifluoro-1-(4-fluorophenyl)ethyl)-1,2,3,4-tetrahydroisoquinoline-7-sulfonamide], the IC50 was 1.07 µM.

Consider `CC(C)C(=O)N1CCc2ccc(S(=O)(=O)N(C)[C@@H](c3ccc(F)cc3)C(F)(F)F)cc2C1` [Example 10, (S)-2-isobutyryl-N-methyl-N-(2,2,2-trifluoro-1-(4-fluorophenyl)ethyl)-1,2,3,4-tetrahydroisoquinoline-7-sulfonamide], for which the IC50 was 3.72 µM.

Consider `CC(C)C(=O)N1CCc2ccc(S(=O)(=O)N(C)[C@@H](C)c3ccc(F)cc3)cc2C1` [Example 11, (S)-N-(1-(4-fluorophenyl)ethyl)-2-isobutyryl-N-methyl-1,2,3,4-tetrahydroisoquinoline-7-sulfonamide], for which the IC50 was 0.851 µM.

As to `CCN([C@@H](C)c1ccc(F)cc1)S(=O)(=O)c1ccc2c(c1)CN(C(=O)C1CC1)CC2` [Example 13, (S)-2-(cyclopropanecarbonyl)-N-ethyl-N-(1-(4-fluorophenyl)ethyl)-1,2,3,4-tetrahydroisoquinoline-7-sulfonamide], the IC50 was 0.912 µM.

`CC(C)C(=O)N1CCc2ccc(S(=O)(=O)N(C)[C@@H](C)c3ccccc3)cc2C1` [Example 15, (S)-2-isobutyryl-N-methyl-N-(1-phenylethyl)-1,2,3,4-tetrahydroisoquinoline-7-sulfonamide]: the IC50 was 0.891 µM.

As to `C[C@@H](c1ccccc1)N(C)S(=O)(=O)c1ccc2c(c1)CN(C(=O)C1CC1)CC2` [Example 16, (S)-2-(cyclopropanecarbonyl)-N-methyl-N-(1-phenylethyl)-1,2,3,4-tetrahydroisoquinoline-7-sulfonamide], the IC50 was 1.02 µM.

With `CCN(C(c1ccc(F)cc1)C(F)(F)F)S(=O)(=O)c1ccc2c(c1)CN(C(=O)C(C)(C)F)CC2` (stereo not drawn) [Example 18, N-ethyl-2-(2-fluoro-2-methylpropanoyl)-N-(2,2,2-trifluoro-1-(4-fluorophenyl)ethyl)-1,2,3,4-tetrahydroisoquinoline-7-sulfonamide], the IC50 is 1.1 µM.

For the molecule `CCN([C@@H](C)c1ccc(F)cc1)S(=O)(=O)c1ccc2c(c1)CN(C(=O)C(C)(C)F)CC2` [Example 19, (S)-N-ethyl-2-(2-fluoro-2-methylpropanoyl)-N-(1-(4-fluorophenyl)ethyl)-1,2,3,4-tetrahydroisoquinoline-7-sulfonamide], the IC50 was 0.575 µM.

Regarding `CCN([C@@H](C)c1ccc(C(F)(F)F)cc1)S(=O)(=O)c1ccc2c(c1)CCN(C(=O)C1CC1)C2` [Example 21, (S)-2-(cyclopropanecarbonyl)-N-ethyl-N-(1-(4-(trifluoromethyl)phenyl)ethyl)-1,2,3,4-tetrahydroisoquinoline-6-sulfonamide], the IC50 was 3.98 µM.

Regarding `CCN([C@@H](C)c1ccc(F)cc1)S(=O)(=O)c1cc(F)c2c(c1)CCN(C(=O)C1CC1)C2` [Example 22, (S)-2-(cyclopropanecarbonyl)-N-ethyl-8-fluoro-N-(1-(4-fluorophenyl)ethyl)-1,2,3,4-tetrahydroisoquinoline-6-sulfonamide], the IC50 was 0.955 µM.

For `CCN([C@@H](C)c1ccc(F)cc1)S(=O)(=O)c1ccc2c(c1)C(C)(C)CN(C(=O)C1CC1)C2` [Example 23, (S)-2-(cyclopropanecarbonyl)-N-ethyl-N-(1-(4-fluorophenyl)ethyl)-4,4-dimethyl-1,2,3,4-tetrahydroisoquinoline-6-sulfonamide], the IC50 was 2.14 µM.

Turning to `CCN([C@@H](C)c1ccc(F)cc1)S(=O)(=O)c1ccc2c(c1)CCN(C(=O)C(C)C)C2` [Example 24, (S)-N-ethyl-N-(1-(4-fluorophenyl)ethyl)-2-isobutyryl-1,2,3,4-tetrahydroisoquinoline-6-sulfonamide], the IC50 is 1.74 µM.

For `CCN([C@@H](C)c1ccccc1)S(=O)(=O)c1ccc2c(c1)CCN(C(=O)C(C)C)C2` [Example 25, (S)-N-ethyl-2-isobutyryl-N-(1-phenylethyl)-1,2,3,4-tetrahydroisoquinoline-6-sulfonamide], the IC50 is 1.45 µM.

As for `CCN([C@H](C)c1ccccc1)S(=O)(=O)c1ccc2c(c1)CCN(C(=O)C(C)C)C2` [Example 26, (R)-N-ethyl-2-isobutyryl-N-(1-phenylethyl)-1,2,3,4-tetrahydroisoquinoline-6-sulfonamide], the IC50 was 4.17 µM.

As for `CCN([C@H](C)c1ccccc1)S(=O)(=O)c1ccc2c(c1)CCN(C(=O)C1CC1)C2` [Example 27, (R)-2-(cyclopropanecarbonyl)-N-ethyl-N-(1-phenylethyl)-1,2,3,4-tetrahydroisoquinoline-6-sulfonamide], the IC50 is 3.63 µM.

Consider `CCN(C1(c2ccc(F)cc2)COC1)S(=O)(=O)c1ccc2c(c1)CN(C(=O)C(C)C)CC2` [Example 28, N-ethyl-N-(3-(4-fluorophenyl)oxetan-3-yl)-2-isobutyryl-1,2,3,4-tetrahydroisoquinoline-7-sulfonamide], for which the IC50 is 3.8 µM.

In the case of `CC(C)C(=O)N1CCc2ccc(S(=O)(=O)N(C)C3(c4ccc(F)cc4)COC3)cc2C1` [Example 29, N-(3-(4-fluorophenyl)oxetan-3-yl)-2-isobutyryl-N-methyl-1,2,3,4-tetrahydroisoquinoline-7-sulfonamide], the IC50 was 7.08 µM.

In the case of `CCN(C1(c2ccc(F)cc2)COC1)S(=O)(=O)c1ccc2c(c1)CCN(C(=O)C(C)C)C2` [Example 30, N-ethyl-N-(3-(4-fluorophenyl)oxetan-3-yl)-2-isobutyryl-1,2,3,4-tetrahydroisoquinoline-6-sulfonamide], the IC50 is 6.76 µM.

For the origin of these results see US20250136552A1, “ANTAGONISTS OF CAV 2.3” (LARIO THERAPEUTICS LIMITED, priority 2021, published 2025).
